Data as given in patent publication US20100216772A1, “Novel Phenantridine Analogues and Uses Thereof” (priority 2004, published 2010).

Tests used:
[1] = system: Peripheral blood mononuclear cells (PBMCs); assay: Influence of compounds on T cell proliferation ([3H]-Thymidin, anti-CD3-stimulated PBMCs); format: cell-based; conditions: PBMC, three different human donors
From the text: Peripheral blood mononuclear cells (PBMCs) were isolated from peripheral blood by Ficoll gradient centrifugation. […] Subsequently, the cells were washed three times with PBS and were resuspended in 96-well plates in a concentration of 2×10^5 cells/well. […] As positive and negative controls, PBMCs, stimulated with soluble anti-CD3-antibody, and non-stimulated PBMCs plus 0,1% DMSO were used. The addition of 0,1% DMSO had no effect on the proliferation rate. […] The cells were harvested using a Mikro 96 Harvester (Skatron Instruments, Lier, Norwegen). The cpm-values indicative for proliferation were determined using a Packard Matrix 9600 Counter (Canberra Packard, Schwadorf, Österreich). The experiments were made with three different human donors.
In order to determine the EC50 of test compounds, the value of anti-CD3-stimulated cells plus 0,1% DMSO was set as 100%. All other values were divided by the 100% value in order to obtain a relative percentage of inhibition. The obtained percentage values were used to determine the EC50 values using Sigma Plot.

HaCaT keratinocytes = assay: Influence of compounds on keratinocyte proliferation (Cell Titer Viability Assay); format: cell-based; conditions: Homo sapiens, 25 μM test compound, 48 hrs, compared to control experiments
Experimental: 5×10^3 HaCaT keratinocytes were seeded into 60 wells of 96 well plates in 200 μl KBM/10% FCS and incubated for 24 hrs at 37° C. The test compounds were dissolved at 100 mM in DMSO. The test items were then diluted to a concentration of 25 μM in KBM/FCS with a final concentration of 1% DMSO. The test compounds, as well as the negative control for unstimulated cells (KBM/1% DMSO) and stimulated cells (KBM/FCS/1% DMSO), were added to the HaCaTs in triplicates and incubated for 48 hrs. At the end of the incubation period, the media was removed and cell numbers were determined with Cell Titer Viability Assay from Promega (#G7571/G7572) according to the manufacturer's instructions.

Cc1ccc(C(=O)n2c(=O)c3ccccc3c3ccccc32)cc1 [Example 77, 5-(4-Methyl-benzoyl)-5H-phenanthridin-6-one]
EC50 [1]: < 25 µM

COC(=O)N1c2ccccc2-c2ccccc2C1c1c[nH]c2ccccc12 (centres unmarked) [Example 36, 6-(1H-Indol-3-yl)-6H-phenanthridine-5-carboxylic acid methyl ester]
inhibition at 25 µM (HaCaT keratinocytes): > 50%

O=C(c1ccc(Cl)nc1)N1c2ccccc2-c2ccccc2C1c1c[nH]c2ccccc12 (centres unmarked) [Example 20, (6-Chloro-pyridin-3-yl)-[6-(1H-indol-3-yl)-6H-phenanthridin-5-yl]-methanone]
inhibition at 25 µM (HaCaT keratinocytes): > 50%

O=C(c1cccc(F)c1)N1c2ccccc2-c2ccccc2C1c1c[nH]c2ccccc12 (centres unmarked) [Example 12, (3-Fluoro-phenyl)-[6-(1H-indol-3-yl)-6H-phenanthridin-5-yl]-methanone]
EC50 [1]: < 25 µM | inhibition at 25 µM (HaCaT keratinocytes): > 50%

CC(=O)N1c2ccccc2-c2ccccc2C1c1c[nH]c2ccccc12 (centres unmarked) [Example 3, 1-[6-(1H-Indol-3-yl)-6H-phenanthridin-5-yl]-ethanone]
EC50 [1]: < 25 µM | inhibition at 25 µM (HaCaT keratinocytes): > 50%

O=C1CN(S(=O)(=O)c2ccccc2)c2ccccc2-c2ccccc21 [Example 79, 5-Benzenesulfonyl-5,6-dihydro-dibenzo[b,d]azepin-7-one]
EC50 [1]: < 25 µM

O=C(c1ccccc1)N1c2ccccc2-c2ccccc2C1c1c[nH]c2ccccc12 (centres unmarked) [Example 4, [6-(1H-Indol-3-yl)-6H-phenanthridin-5-yl]-phenylmethanone]
inhibition at 25 µM (HaCaT keratinocytes): > 50%

Cc1ccc(S(=O)(=O)N2CC(=O)c3ccccc3-c3ccccc32)cc1 [Example 78, 5-(Toluene-4-sulfonyl)-5,6-dihydro-dibenzo[b,d]azepin-7-one]
EC50 [1]: < 25 µM | inhibition at 25 µM (HaCaT keratinocytes): > 50%

O=C1CN(S(=O)(=O)c2ccc(Br)cc2)c2ccccc2-c2ccccc21 [Example 82, 5-(4-Bromo-benzenesulfonyl)-5,6-dihydro-dibenzo[b,d]azepin-7-one]
EC50 [1]: < 25 µM

O=C(CCC1CCCCC1)N1c2ccccc2-c2ccccc2C1c1c[nH]c2ccccc12 (centres unmarked) [Example 34, 3-Cyclohexyl-1-[6-(1H-indol-3-yl)-6H-phenanthridin-5-yl]-propan-1-one]
inhibition at 25 µM (HaCaT keratinocytes): > 50%

O=C(CCc1ccccc1)N1c2ccccc2-c2ccccc2C1c1c[nH]c2ccccc12 (centres unmarked) [Example 35, 1-[6-(1H-Indol-3-yl)-6H-phenanthridin-5-yl]-3-phenyl-propan-1-one]
inhibition at 25 µM (HaCaT keratinocytes): > 50%

CN(C)c1ccc(C(=O)N2c3ccccc3-c3ccccc3C2c2c[nH]c3ccccc23)cc1 (centres unmarked) [Example 6, (4-Dimethylamino-phenyl)-[6-(1H-indol-3-yl)-6H-phenanthridin-5-yl]-methanone]
inhibition at 25 µM (HaCaT keratinocytes): > 50%

O=C1CN(S(=O)(=O)c2ccc([N+](=O)[O-])cc2)c2ccccc2-c2ccccc21 [Example 83, 5-(4-Nitro-benzenesulfonyl)-5,6-dihydro-dibenzo[b,d]azepin-7-one]
EC50 [1]: < 25 µM

O=C1CN(S(=O)(=O)c2cccs2)c2ccccc2-c2ccccc21 [Example 86, 5-(Thiophene-2-sulfonyl)-5,6-dihydro-dibenzo[b,d]azepin-7-one]
EC50 [1]: < 25 µM

O=C(c1cc(C(F)(F)F)cc(C(F)(F)F)c1)N1c2ccccc2-c2ccccc2C1c1c[nH]c2ccccc12 (centres unmarked) [Example 17, (3,5-Bis-trifluoromethyl-phenyl)-[6-(1H-indol-3-yl)-6H-phenanthridin-5-yl]-methanone]
inhibition at 25 µM (HaCaT keratinocytes): > 50%

O=C(c1ccco1)N1c2ccccc2-c2ccccc2C1c1c[nH]c2ccccc12 (centres unmarked) [Example 23, Furan-2-yl-[6-(1H-indol-3-yl)-6H-phenanthridin-5-yl]-methanone]
EC50 [1]: < 25 µM | inhibition at 25 µM (HaCaT keratinocytes): > 50%

Cc1ccc(S(=O)(=O)N2c3ccccc3-c3ccccc3C2c2ccc3c(c2)OCO3)cc1 (centres unmarked) [Example 76, 6-Benzo[1,3]dioxol-5-yl-5-(toluene-4-sulfonyl)-5,6-dihydro-phenanthridine]
EC50 [1]: < 25 µM

O=C(C1CCC1)N1c2ccccc2-c2ccccc2C1c1c[nH]c2ccccc12 (centres unmarked) [Example 30, Cyclobutyl-[6-(1H-indol-3-yl)-6H-phenanthridin-5-yl]-methanone]
inhibition at 25 µM (HaCaT keratinocytes): > 50%

CC(C)C(=O)N1c2ccccc2-c2ccccc2C1c1c[nH]c2ccccc12 (centres unmarked) [Example 26, 1-[6-(1H-Indol-3-yl)-6H-phenanthridin-5-yl]-2-methyl-propan-1-one]
EC50 [1]: < 25 µM | inhibition at 25 µM (HaCaT keratinocytes): > 50%

CCCC(C)C(=O)N1c2ccccc2-c2ccccc2C1c1c[nH]c2ccccc12 (centres unmarked) [Example 28, 1-[6-(1H-Indol-3-yl)-6H-phenanthridin-5-yl]-2-methyl-pentan-1-one]
EC50 [1]: < 25 µM | inhibition at 25 µM (HaCaT keratinocytes): > 50%

CC(=O)Nc1ccc(S(=O)(=O)N2CC(=O)c3ccccc3-c3ccccc32)cc1 [Example 81, N-[4-(7-Oxo-6,7-dihydro-dibenzo[b,d]azepine-5-sulfonyl)-phenyl]-acetamide]
EC50 [1]: < 25 µM

O=C(c1ccc(C(F)(F)F)cc1)N1c2ccccc2-c2ccccc2C1c1c[nH]c2ccccc12 (centres unmarked) [Example 7, [6-(1H-Indol-3-yl)-6H-phenanthridin-5-yl]-(4-trifluoromethyl-phenyl)-methanone]
inhibition at 25 µM (HaCaT keratinocytes): > 50%

O=C1CN(S(=O)(=O)c2cc(C(F)(F)F)cc(C(F)(F)F)c2)c2ccccc2-c2ccccc21 [Example 84, 5-(3,5-Bis-trifluoromethyl-benzenesulfonyl)-5,6-dihydro-dibenzo[b,d]azepin-7-one]
EC50 [1]: < 25 µM

O=C(c1cccc(C(F)(F)F)c1)N1c2ccccc2-c2ccccc2C1c1c[nH]c2ccccc12 (centres unmarked) [Example 14, [6-(1H-Indol-3-yl)-6H-phenanthridin-5-yl]-(3-trifluoromethyl-phenyl)-methanone]
inhibition at 25 µM (HaCaT keratinocytes): > 50%

O=C(c1cccnc1Cl)N1c2ccccc2-c2ccccc2C1c1c[nH]c2ccccc12 (centres unmarked) [Example 21, (2-Chloro-pyridin-3-yl)-[6-(1H-indol-3-yl)-6H-phenanthridin-5-yl]-methanone]
EC50 [1]: < 25 µM | inhibition at 25 µM (HaCaT keratinocytes): > 50%
